Species: Rattus norvegicus
Assay: Open TG-GATES - Regimen: Daily Repeat
Type: toxicity, organism-based, Sprague-Dawley
Parameters: regimen Daily Repeat, gender Male, age 6 weeks
Conditions: in vivo, po, route gavage; for APTT / Bas / Eos / Fbg / Hb / Ht / Lym / MCH / MCHC / MCV / Mono / Neu / PT / Plat / RBC / Ret / WBC: tissue Blood; for KIDNEY_L / KIDNEY_R / KIDNEY_TOTAL: tissue Kidney; for LIVER: tissue Liver; for A/G / ALP / ALT / AST / BUN / CRE / Ca / Cl / DBIL / GLC / IP / K / LDH / Na / PL / RALB / TBIL / TC / TG / TP / gamma-GTP: tissue Plasma
[1] = 150 mg/kg, 72 h, dose level Middle, time 3 day
[2] = 150 mg/kg, […], dose level Middle, time 7 day
[3] = 150 mg/kg, […], dose level Middle, time 14 day
[4] = 150 mg/kg, […], dose level Middle, time 28 day
[5] = 500 mg/kg, 72 h, dose level High, time 3 day
[6] = 500 mg/kg, […], dose level High, time 7 day
[7] = 500 mg/kg, […], dose level High, time 14 day
[8] = 500 mg/kg, […], dose level High, time 28 day

## CC(=O)Oc1cc(C(C)C)c(OCCN(C)C)cc1C [MOXISYLYTE]
[1]
  TERMINAL_BW: 223.4 g
  APTT: 20.6 s
  Bas: 0%
  Eos: 1%
  Fbg: 313 mg/dL
  Hb: 14.1 g/dL
  Ht: 40.5%
  Lym: 78%
  MCH: 21.3 pg
  MCHC: 34.8%
  MCV: 61.2 fL
  Mono: 2.4%
  Neu: 17.6%
  PT: 16.2 s
  Plat: 113.1 x10_4/uL
  RBC: 663.6 x10_4/ul
  Ret: 6.3%
  WBC: 91.7 x10_2/uL
  KIDNEY_L: 1 g
  KIDNEY_R: 1 g
  KIDNEY_TOTAL: 2 g
  LIVER: 9.7 g
  A/G: 1.3
  ALP: 1491.8 IU/L
  ALT: 42.6 IU/L
  AST: 75.6 IU/L
  BUN: 16.4 mg/dL
  CRE: 0.1 mg/dL
  Ca: 10.8 mg/dL
  Cl: 106.6 meq/L
  DBIL: 0.01 mg/dL
  GLC: 176.8 mg/dL
  IP: 7.4 mg/dL
  K: 4.2 meq/L
  LDH: 242.8 IU/L
  Na: 142.6 meq/L
  PL: 159.8 mg/dL
  RALB: 3.3 g/dL
  TBIL: 0.008 mg/dL
  TC: 74.4 mg/dL
  TG: 140.6 mg/dL
  TP: 5.8 g/dL
  gamma-GTP: 1 IU/L
[2]
  TERMINAL_BW: 265.4 g
  APTT: 22.3 s
  Bas: 0%
  Eos: 0.6%
  Fbg: 318.2 mg/dL
  Hb: 13.4 g/dL
  Ht: 38.8%
  Lym: 81.4%
  MCH: 21.1 pg
  MCHC: 34.6%
  MCV: 61.2 fL
  Mono: 2.2%
  Neu: 15.2%
  PT: 15.3 s
  Plat: 113.7 x10_4/uL
  RBC: 633.2 x10_4/ul
  Ret: 6.1%
  WBC: 110.8 x10_2/uL
  KIDNEY_L: 1.1 g
  KIDNEY_R: 1.2 g
  KIDNEY_TOTAL: 2.3 g
  LIVER: 12.3 g
  A/G: 1.3
  ALP: 1576.8 IU/L
  ALT: 43.4 IU/L
  AST: 77.8 IU/L
  BUN: 17.2 mg/dL
  CRE: 0.2 mg/dL
  Ca: 10.6 mg/dL
  Cl: 106 meq/L
  DBIL: 0 mg/dL
  GLC: 192.2 mg/dL
  IP: 7.2 mg/dL
  K: 4.3 meq/L
  LDH: 192.2 IU/L
  Na: 141.4 meq/L
  PL: 155.4 mg/dL
  RALB: 3.1 g/dL
  TBIL: 0.006 mg/dL
  TC: 75.6 mg/dL
  TG: 147.6 mg/dL
  TP: 5.5 g/dL
  gamma-GTP: 1.4 IU/L
[3]
  TERMINAL_BW: 312.1 g
  APTT: 21.8 s
  Bas: 0%
  Eos: 1.2%
  Fbg: 310.8 mg/dL
  Hb: 14.5 g/dL
  Ht: 40%
  Lym: 76.4%
  MCH: 20.9 pg
  MCHC: 36.3%
  MCV: 57.8 fL
  Mono: 2.6%
  Neu: 19%
  PT: 15.9 s
  Plat: 117.3 x10_4/uL
  RBC: 692.8 x10_4/ul
  Ret: 4.9%
  WBC: 125.2 x10_2/uL
  KIDNEY_L: 1.2 g
  KIDNEY_R: 1.3 g
  KIDNEY_TOTAL: 2.6 g
  LIVER: 13.7 g
  A/G: 1.2
  ALP: 1330.2 IU/L
  ALT: 44.6 IU/L
  AST: 79.2 IU/L
  BUN: 18.8 mg/dL
  CRE: 0.2 mg/dL
  Ca: 10.6 mg/dL
  Cl: 107.4 meq/L
  DBIL: 0 mg/dL
  GLC: 173.2 mg/dL
  IP: 6 mg/dL
  K: 4.2 meq/L
  LDH: 181.2 IU/L
  Na: 141 meq/L
  PL: 146.2 mg/dL
  RALB: 3.1 g/dL
  TBIL: 0 mg/dL
  TC: 76.2 mg/dL
  TG: 151.4 mg/dL
  TP: 5.7 g/dL
  gamma-GTP: 1 IU/L
[4]
  TERMINAL_BW: 361.5 g
  APTT: 22.5 s
  Bas: 0%
  Eos: 1%
  Fbg: 323.6 mg/dL
  Hb: 15.1 g/dL
  Ht: 42.5%
  Lym: 81.6%
  MCH: 19 pg
  MCHC: 35.4%
  MCV: 53.5 fL
  Mono: 2.4%
  Neu: 14.2%
  PT: 15.6 s
  Plat: 92.2 x10_4/uL
  RBC: 793.6 x10_4/ul
  Ret: 2.7%
  WBC: 166.9 x10_2/uL
  KIDNEY_L: 1.4 g
  KIDNEY_R: 1.4 g
  KIDNEY_TOTAL: 2.8 g
  LIVER: 14.2 g
  A/G: 1
  ALP: 1105.4 IU/L
  ALT: 41 IU/L
  AST: 70.4 IU/L
  BUN: 17.4 mg/dL
  CRE: 0.2 mg/dL
  Ca: 10.4 mg/dL
  Cl: 107 meq/L
  DBIL: 0.002 mg/dL
  GLC: 188.2 mg/dL
  IP: 6.1 mg/dL
  K: 4.1 meq/L
  LDH: 137 IU/L
  Na: 141.8 meq/L
  PL: 143 mg/dL
  RALB: 3.1 g/dL
  TBIL: 0.006 mg/dL
  TC: 71.4 mg/dL
  TG: 150.4 mg/dL
  TP: 6 g/dL
  gamma-GTP: 2.2 IU/L
[5]
  TERMINAL_BW: 224 g
  APTT: 20.8 s
  Bas: 0%
  Eos: 1%
  Fbg: 325 mg/dL
  Hb: 14.2 g/dL
  Ht: 40.8%
  Lym: 76%
  MCH: 21.2 pg
  MCHC: 34.8%
  MCV: 61 fL
  Mono: 2.8%
  Neu: 20%
  PT: 15.7 s
  Plat: 118.1 x10_4/uL
  RBC: 669.4 x10_4/ul
  Ret: 6.3%
  WBC: 95.6 x10_2/uL
  KIDNEY_L: 1 g
  KIDNEY_R: 1 g
  KIDNEY_TOTAL: 2 g
  LIVER: 10.7 g
  A/G: 1.3
  ALP: 1492.8 IU/L
  ALT: 46.6 IU/L
  AST: 77.6 IU/L
  BUN: 17.6 mg/dL
  CRE: 0.2 mg/dL
  Ca: 10.9 mg/dL
  Cl: 106.4 meq/L
  DBIL: 0.004 mg/dL
  GLC: 176.4 mg/dL
  IP: 7.6 mg/dL
  K: 4.4 meq/L
  LDH: 244.2 IU/L
  Na: 142.6 meq/L
  PL: 177.6 mg/dL
  RALB: 3.2 g/dL
  TBIL: 0.012 mg/dL
  TC: 92.2 mg/dL
  TG: 118.6 mg/dL
  TP: 5.8 g/dL
  gamma-GTP: 1.2 IU/L
[6]
  TERMINAL_BW: 243.1 g
  APTT: 21.5 s
  Bas: 0%
  Eos: 0.8%
  Fbg: 317.8 mg/dL
  Hb: 13.6 g/dL
  Ht: 38.5%
  Lym: 76.6%
  MCH: 21 pg
  MCHC: 35.3%
  MCV: 59.4 fL
  Mono: 2.4%
  Neu: 19.6%
  PT: 15.4 s
  Plat: 118.7 x10_4/uL
  RBC: 649.6 x10_4/ul
  Ret: 4.8%
  WBC: 113.3 x10_2/uL
  KIDNEY_L: 1.1 g
  KIDNEY_R: 1.1 g
  KIDNEY_TOTAL: 2.1 g
  LIVER: 11.2 g
  A/G: 1.3
  ALP: 1348.8 IU/L
  ALT: 46.2 IU/L
  AST: 74.8 IU/L
  BUN: 19 mg/dL
  CRE: 0.2 mg/dL
  Ca: 10.6 mg/dL
  Cl: 105.8 meq/L
  DBIL: 0 mg/dL
  GLC: 168.8 mg/dL
  IP: 6.7 mg/dL
  K: 4.1 meq/L
  LDH: 205.6 IU/L
  Na: 141.6 meq/L
  PL: 169.8 mg/dL
  RALB: 3.1 g/dL
  TBIL: 0.012 mg/dL
  TC: 86.4 mg/dL
  TG: 120.8 mg/dL
  TP: 5.5 g/dL
  gamma-GTP: 1.4 IU/L
[7]
  TERMINAL_BW: 311.5 g
  APTT: 22.2 s
  Bas: 0%
  Eos: 1%
  Fbg: 314.8 mg/dL
  Hb: 14.6 g/dL
  Ht: 39.8%
  Lym: 74.4%
  MCH: 21.2 pg
  MCHC: 36.7%
  MCV: 57.9 fL
  Mono: 2.2%
  Neu: 21.6%
  PT: 15.8 s
  Plat: 122.7 x10_4/uL
  RBC: 688.2 x10_4/ul
  Ret: 5%
  WBC: 116.2 x10_2/uL
  KIDNEY_L: 1.2 g
  KIDNEY_R: 1.3 g
  KIDNEY_TOTAL: 2.5 g
  LIVER: 14.8 g
  A/G: 1.2
  ALP: 1394 IU/L
  ALT: 43.6 IU/L
  AST: 69.2 IU/L
  BUN: 17.4 mg/dL
  CRE: 0.2 mg/dL
  Ca: 10.6 mg/dL
  Cl: 104.6 meq/L
  DBIL: 0 mg/dL
  GLC: 179.4 mg/dL
  IP: 6.7 mg/dL
  K: 3.7 meq/L
  LDH: 123.6 IU/L
  Na: 141.4 meq/L
  PL: 171 mg/dL
  RALB: 3.2 g/dL
  TBIL: 0.006 mg/dL
  TC: 83.2 mg/dL
  TG: 190 mg/dL
  TP: 5.8 g/dL
  gamma-GTP: 1 IU/L
[8]
  TERMINAL_BW: 377.7 g
  APTT: 21.9 s
  Bas: 0%
  Eos: 1.2%
  Fbg: 311 mg/dL
  Hb: 15 g/dL
  Ht: 42.8%
  Lym: 79.2%
  MCH: 18.7 pg
  MCHC: 35.1%
  MCV: 53.3 fL
  Mono: 1.6%
  Neu: 17.4%
  PT: 15.3 s
  Plat: 105.2 x10_4/uL
  RBC: 802.6 x10_4/ul
  Ret: 2.9%
  WBC: 118.3 x10_2/uL
  KIDNEY_L: 1.4 g
  KIDNEY_R: 1.4 g
  KIDNEY_TOTAL: 2.8 g
  LIVER: 15.5 g
  A/G: 1.1
  ALP: 1129.4 IU/L
  ALT: 47.6 IU/L
  AST: 69.8 IU/L
  BUN: 17.6 mg/dL
  CRE: 0.2 mg/dL
  Ca: 10.7 mg/dL
  Cl: 106 meq/L
  DBIL: 0.004 mg/dL
  GLC: 189 mg/dL
  IP: 6.4 mg/dL
  K: 4.1 meq/L
  LDH: 151.2 IU/L
  Na: 142.2 meq/L
  PL: 173.6 mg/dL
  RALB: 3.2 g/dL
  TBIL: 0.008 mg/dL
  TC: 87 mg/dL
  TG: 152.2 mg/dL
  TP: 6.2 g/dL
  gamma-GTP: 2 IU/L

— ChEMBL document CHEMBL3885861, “Open TG-GATES”
